Test results taken from patent publication US10093671B2, “2-oxo-6,7-dihydrobenzo[a]quinolizine-3-carboxylic acid derivatives for the treatment and prophylaxis of hepatitis B virus infection” (Hoffmann-La Roche Inc., priority 2015, dated 2018).
Counter-ions that a name gives are not always drawn.

Tests used:
HBsAg = test: microbe, parasite or virus in culture; details: Hepatitis B virus, HepG2.2.15, read-out: IC50 (HBsAg secretion reduced by 50% compared to the no drug control)
Experimental: HepG2.2.15 cells (Acs et al. Proc Natl Acad Sci USA, 84, (1987), 4641-4), a constitutively HBV-expressing cell line were cultured in DMEM+Glutamax-I medium (Invitrogen, Carlsbad, Calif., USA), supplemented with 10% fetal bovine serum (Invitrogen) and G418 (Invitrogen) at a final concentration of 200 mg/L and maintained in 5% CO2 at 37° C.
HepG2.2.15 cells were seeded in duplicate into white, 96-well plates at 1.5×10^4 cells/well. The cells were treated with a three-fold serial dilution series of the compounds in DMSO. The final DMSO concentration in all wells was 1% and DMSO was used as no drug control.
The HBsAg chemiluminescence immunoassay (CLIA) kit (Autobio Diagnostics Co., Zhengzhou, China, Catalog number: CL0310-2) was used to measure the levels of secreted HBV antigens semi-quantitatively. For the detection 50 μL/well culture supernatant was used and HBsAg was quantified using HBsAg chemiluminescence immunoassay (CLIA) kit (Autobio Diagnostics Co., Zhengzhou, China, Catalog number: CL0310-2), 50 μL of the supernatant was transferred to the CLIA assay plate and 50 μL of enzyme conjugate reagent was added into each well. The plates were sealed and gently agitated for 1 hour at room temperature. The supernatant-enzyme-mixture was discarded and wells were washed 6 times with 300 μL of PBS. The residual liquid was removed by plating the CLIA plate right side down on absorbent tissue paper. 25 μL of substrates A and B were added to each well. Luminance was measured using a luminometer (Mithras LB 940 Multimode Microplate Reader) after 10 minutes incubation. Dose-response curves were generated and the IC50 value was extrapolated by using the E-WorkBook Suite (ID Business Solutions Ltd., Guildford, UK). The IC50 was defined as the compound concentration (or conditioned media log dilution) at which HBsAg secretion was reduced by 50% compared to the no drug control.

HBV DNA = HBV DNA assay (real-time qPCR of extracellular HBV DNA copy number, HepG2.2.15 cells); format: cell-based; details: Hepatitis B virus, 144 h, six days, extracellular HBV DNA by qPCR, read-out: IC50 (Anti HBV DNA production activity)
Experimental: The assay employs real-time qPCR (TaqMan) to directly measure extracellular HBV DNA copy number. HepG2.2.15 cells were plated in 96-well microtiter plates. Only the interior wells were utilized to reduce “edge effects” observed during cell culture, the exterior wells were filled with complete medium to help minimize sample evaporation. On the following day, the HepG2.2.15 cells were washed and the medium was replaced with complete medium containing various concentrations of a test compound in triplicate. 3TC was used as the positive control, while media alone was added to cells as a negative control (virus control, VC). Three days later, the culture medium was replaced with fresh medium containing the appropriately diluted drug. Six days following the initial administration of the test compound, the cell culture supernatant was collected, treated with pronase and then used in a real-time qPCR/TaqMan assay to determine HBV DNA copy numbers. Antiviral activity was calculated from the reduction in HBV DNA levels (IC50).

SMILES: COc1cc2c(cc1OC)-c1cc(=O)c(C(=O)O)cn1C(c1cccs1)C2 (centres unmarked) [Example 13, 9,10-dimethoxy-2-oxo-6-(2-thienyl)-6,7-dihydrobenzo[a]quinolizine-3-carboxylic Acid]
- IC50 (HBsAg): 6 nM

SMILES: COc1cc2c(cc1N1CCCC1)CC(c1cccs1)n1cc(C(=O)O)c(=O)cc1-2 (centres unmarked) [Example 36, 10-methoxy-2-oxo-9-pyrrolidin-1-yl-6-(2-thienyl)-6,7-dihydrobenzo[a]quinolizine-3-carboxylic Acid]
- IC50 (HBsAg): 3 nM

SMILES: COc1cc2c(cc1OCc1ccccc1)CC(c1cccs1)n1cc(C(=O)O)c(=O)cc1-2 (centres unmarked) [Example 12, 9-benzyloxy-10-methoxy-2-oxo-6-(2-thienyl)-6,7-dihydrobenzo[a]quinolizine-3-carboxylic Acid]
- IC50 (HBsAg): 5 nM

SMILES: COCCCOc1cc2c(cc1OC)-c1cc(=O)c(C(=O)O)cn1C(c1ccc(OCc3ccccc3)cc1)C2 (centres unmarked) [Example 6, 6-(4-benzyloxyphenyl)-10-methoxy-9-(3-methoxypropoxy)-2-oxo-6,7-dihydrobenzo[a]quinolizine-3-carboxylic Acid]
- IC50 (HBsAg): 1930 nM

SMILES: COc1cc2c(cc1OCCCCCCNC(C)=O)CC(c1cccs1)n1cc(C(=O)O)c(=O)cc1-2 (centres unmarked) [Example 23, 9-(6-acetamidohexoxy)-10-methoxy-2-oxo-6-(2-thienyl)-6,7-dihydrobenzo[a]quinolizine-3-carboxylic Acid]
- IC50 (HBsAg): 18 nM

SMILES: COc1cc2c(cc1OCCCS(C)(=O)=O)CC(c1cccs1)n1cc(C(=O)O)c(=O)cc1-2 (centres unmarked) [Example 32, 10-methoxy-9-(3-methylsulfonylpropoxy)-2-oxo-6-(2-thienyl)-6,7-dihydrobenzo[a]quinolizine-3-carboxylic Acid]
- IC50 (HBsAg): 110 nM

SMILES: COc1cc2c(cc1OCCCO)CC(c1cccs1)n1cc(C(=O)O)c(=O)cc1-2 (centres unmarked) [Example 17, 9-(3-hydroxypropoxy)-10-methoxy-2-oxo-6-(2-thienyl)-6,7-dihydrobenzo[a]quinolizine-3-carboxylic Acid]
- IC50 (HBsAg): 18 nM

SMILES: COc1cc2c(cc1OCCCCCCN)CC(c1cccs1)n1cc(C(=O)O)c(=O)cc1-2 (centres unmarked) [Example 22, 9-(6-aminohexoxy)-10-methoxy-2-oxo-6-(2-thienyl)-6,7-dihydrobenzo[a]quinolizine-3-carboxylic Acid Formate]
- IC50 (HBsAg): 21 nM

SMILES: COc1cc2c(cc1OCC(C)(C)CO)CC(c1cccs1)n1cc(C(=O)O)c(=O)cc1-2 (centres unmarked) [Example 26, 9-(3-hydroxy-2,2-dimethyl-propoxy)-10-methoxy-2-oxo-6-(2-thienyl)-6,7-dihydrobenzo[a]quinolizine-3-carboxylic Acid]
- IC50 (HBsAg): 4 nM

SMILES: COc1cc2c(cc1OCC1CC1)CC(c1cccs1)n1cc(C(=O)O)c(=O)cc1-2 (centres unmarked) [Example 15, 9-(cyclopropylmethoxy)-10-methoxy-2-oxo-6-(2-thienyl)-6,7-dihydrobenzo[a]quinolizine-3-carboxylic Acid]
- IC50 (HBV DNA): < 32 nM
- IC50 (HBsAg): 2 nM

SMILES: COc1cc2c(cc1OCCCN1CCCCC1)CC(c1cccs1)n1cc(C(=O)O)c(=O)cc1-2 (centres unmarked) [Example 18, 10-methoxy-2-oxo-9-[3-(1-piperidyl)propoxy]-6-(2-thienyl)-6,7-dihydrobenzo[a]quinolizine-3-carboxylic Acid Formate]
- IC50 (HBsAg): 97 nM

SMILES: COc1cc2c(cc1C)CC(c1cccs1)n1cc(C(=O)O)c(=O)cc1-2 (centres unmarked) [Example 33, 10-methoxy-9-methyl-2-oxo-6-(2-thienyl)-6,7-dihydrobenzo[a]quinolizine-3-carboxylic Acid]
- IC50 (HBsAg): 35 nM

SMILES: COCCCOc1cc2c(cc1OC)-c1cc(=O)c(C(=O)O)cn1C(c1ccc(F)cc1)C2 (centres unmarked) [Example 9, 6-(4-fluorophenyl)-10-methoxy-9-(3-methoxypropoxy)-2-oxo-6,7-dihydrobenzo[a]quinolizine-3-carboxylic Acid]
- IC50 (HBsAg): 83 nM

SMILES: COc1cc2c(cc1OCCCCCCNS(C)(=O)=O)CC(c1cccs1)n1cc(C(=O)O)c(=O)cc1-2 (centres unmarked) [Example 24, 9-[6-(methanesulfonamido)hexoxy]-10-methoxy-2-oxo-6-(2-thienyl)-6,7-dihydrobenzo[a]quinolizine-3-carboxylic Acid]
- IC50 (HBsAg): 10 nM

SMILES: COc1cc2c(cc1OCCCN1CCOCC1)CC(c1cccs1)n1cc(C(=O)O)c(=O)cc1-2 (centres unmarked) [Example 28, 10-methoxy-9-(3-morpholinopropoxy)-2-oxo-6-(2-thienyl)-6,7-dihydrobenzo[a]quinolizine-3-carboxylate]
- IC50 (HBsAg): 10 nM

SMILES: COc1cc2c(cc1OCC(C)C)CC(c1cccs1)n1cc(C(=O)O)c(=O)cc1-2 (centres unmarked) [Example 14, 9-isobutoxy-10-methoxy-2-oxo-6-(2-thienyl)-6,7-dihydrobenzo[a]quinolizine-3-carboxylic Acid]
- IC50 (HBsAg): 2 nM

SMILES: COc1cc2c(cc1OCCN1CCCC1=O)CC(c1cccs1)n1cc(C(=O)O)c(=O)cc1-2 (centres unmarked) [Example 20, 10-methoxy-2-oxo-9-[2-(2-oxopyrrolidin-1-yl)ethoxy]-6-(2-thienyl)-6,7-dihydrobenzo[a]quinolizine-3-carboxylic Acid]
- IC50 (HBsAg): 37 nM

SMILES: COc1cc2c(cc1OCC(F)(F)F)CC(c1cccs1)n1cc(C(=O)O)c(=O)cc1-2 (centres unmarked) [Example 27, 10-methoxy-2-oxo-6-(2-thienyl)-9-(2,2,2-trifluoroethoxy)-6,7-dihydrobenzo[a]quinolizine-3-carboxylic Acid]
- IC50 (HBsAg): 3 nM

SMILES: COc1cc2c(cc1OCCCCCCO)CC(c1cccs1)n1cc(C(=O)O)c(=O)cc1-2 (centres unmarked) [Example 25, 9-(6-hydroxyhexoxy)-10-methoxy-2-oxo-6-(2-thienyl)-6,7-dihydrobenzo[a]quinolizine-3-carboxylic Acid]
- IC50 (HBsAg): 3 nM

SMILES: COCCCOc1cc2c(cc1Cl)-c1cc(=O)c(C(=O)O)cn1C(c1cc3ccccc3s1)C2 (centres unmarked) [Example 37, 6-(benzothiophen-2-yl)-10-chloro-9-(3-methoxypropoxy)-2-oxo-6,7-dihydrobenzo[a]quinolizine-3-carboxylic Acid]
- IC50 (HBsAg): 4420 nM

SMILES: CCc1cc2c(cc1OC)-c1cc(=O)c(C(=O)O)cn1C(c1cccs1)C2 (centres unmarked) [Example 34, 9-ethyl-10-methoxy-2-oxo-6-(2-thienyl)-6,7-dihydrobenzo[a]quinolizine-3-carboxylic Acid]
- IC50 (HBsAg): 24 nM

SMILES: COc1cc2c(cc1OCCCn1cccn1)CC(c1cccs1)n1cc(C(=O)O)c(=O)cc1-2 (centres unmarked) [Example 16, 10-methoxy-2-oxo-9-(3-pyrazol-1-ylpropoxy)-6-(2-thienyl)-6,7-dihydrobenzo[a]quinolizine-3-carboxylic Acid]
- IC50 (HBsAg): 9 nM

SMILES: COCCCOc1cc2c(cc1OC)-c1cc(=O)c(C(=O)O)cn1C(c1ccccc1C)C2 (centres unmarked) [Example 10, 10-methoxy-9-(3-methoxypropoxy)-6-(o-tolyl)-2-oxo-6,7-dihydrobenzo[a]quinolizine-3-carboxylic Acid]
- IC50 (HBsAg): 10 nM

SMILES: COCCCOc1cc2c(cc1OC)-c1cc(=O)c(C(=O)O)cn1C(c1cc(C)cs1)C2 (centres unmarked) [Example 7, 10-methoxy-9-(3-methoxypropoxy)-6-(4-methyl-2-thienyl)-2-oxo-6,7-dihydrobenzo[a]quinolizine-3-carboxylic Acid]
- IC50 (HBV DNA): < 32 nM
- IC50 (HBsAg): 9 nM

SMILES: COc1cc2c(cc1OCCCSC)CC(c1cccs1)n1cc(C(=O)O)c(=O)cc1-2 (centres unmarked) [Example 31, 10-methoxy-9-(3-methylsulfanylpropoxy)-2-oxo-6-(2-thienyl)-6,7-dihydrobenzo[a]quinolizine-3-carboxylic Acid]
- IC50 (HBsAg): 4 nM

SMILES: CCCc1cc2c(cc1OC)-c1cc(=O)c(C(=O)O)cn1C(c1cccs1)C2 (centres unmarked) [Example 35, 10-methoxy-2-oxo-9-propyl-6-(2-thienyl)-6,7-dihydrobenzo[a]quinolizine-3-carboxylic Acid]
- IC50 (HBsAg): 22 nM

SMILES: COc1cc2c(cc1OCCCC(=O)O)CC(c1cccs1)n1cc(C(=O)O)c(=O)cc1-2 (centres unmarked) [Example 30, 9-(3-carboxypropoxy)-10-methoxy-2-oxo-6-(2-thienyl)-6,7-dihydrobenzo[a]quinolizine-3-carboxylic Acid]
- IC50 (HBsAg): 320 nM

SMILES: COc1cc2c(cc1OCCCn1cncn1)CC(c1cccs1)n1cc(C(=O)O)c(=O)cc1-2 (centres unmarked) [Example 29, 10-methoxy-2-oxo-6-(2-thienyl)-9-[3-(1,2,4-triazol-1-yl)propoxy]-6,7-dihydrobenzo[a]quinolizine-3-carboxylic Acid]
- IC50 (HBsAg): 64 nM

SMILES: COCCCOc1cc2c(cc1OC)-c1cc(=O)c(C(=O)O)cn1C(c1ccc(OC)cc1)C2 (centres unmarked) [Example 5, 10-methoxy-6-(4-methoxyphenyl)-9-(3-methoxypropoxy)-2-oxo-6,7-dihydrobenzo[a]quinolizine-3-carboxylic Acid]
- IC50 (HBsAg): 800 nM

SMILES: COc1ccc2c(c1C)CC(c1cccs1)n1cc(C(=O)O)c(=O)cc1-2 (centres unmarked) [Example 11, 9-methoxy-8-methyl-2-oxo-6-(2-thienyl)-6,7-dihydrobenzo[a]quinolizine-3-carboxylic Acid]
- IC50 (HBsAg): 170 nM

SMILES: COc1cc2c(cc1OCCCC#N)CC(c1cccs1)n1cc(C(=O)O)c(=O)cc1-2 (centres unmarked) [Example 19, 9-(3-cyanopropoxy)-10-methoxy-2-oxo-6-(2-thienyl)-6,7-dihydrobenzo[a]quinolizine-3-carboxylic Acid]
- IC50 (HBsAg): 5 nM

SMILES: COc1cc2c(cc1OCCCCCCNC(=O)OC(C)(C)C)CC(c1cccs1)n1cc(C(=O)O)c(=O)cc1-2 (centres unmarked) [Example 21, 9-[6-(tert-butoxycarbonylamino)hexoxy]-10-methoxy-2-oxo-6-(2-thienyl)-6,7-dihydrobenzo[a]quinolizine-3-carboxylic Acid]
- IC50 (HBsAg): 6 nM

SMILES: COCCCOc1cc2c(cc1OC)-c1cc(=O)c(C(=O)O)cn1C(c1ccc(O)cc1)C2 (centres unmarked) [Example 4, 6-(4-hydroxyphenyl)-10-methoxy-9-(3-methoxypropoxy)-2-oxo-6,7-dihydrobenzo[a]quinolizine-3-carboxylic Acid]
- IC50 (HBsAg): 1160 nM
